Reference: EPA's ToxValDB 9.5 (doi:10.2903/j.efsa.2005.32ar)
Values after ≈ are worked out from the molar mass of the structure shown.

Legend:
Aphidius rhopalosiphi = assay: LR50; higher = less toxic; settings: acute; duration: 48 hours; mortality
Daphnia magna = settings: chronic/long-term; duration: 21 days; reproduction
Canidae = settings: chronic; duration: 6 months; oral; Dog Other; clinical signs
Tagia sp. = settings: acute; mortality
Rattus norvegicus = settings: reproduction developmental
Apis mellifera = settings: acute; duration: 48 hours; dermal; mortality
Anas platyrhynchos = settings: short-term; oral; feed; mortality
Bibionidae = settings: chronic/long-term; development

COP(=S)(OC)Oc1c(Cl)cc(C)cc1Cl [Tolclofos-methyl]
LR50 (Aphidius rhopalosiphi): 43.7 g/ha | LC50 (Oncorhynchus mykiss; acute, duration: 96 hours, mortality): 0.69 mg/L (≈ 2.29 µM) | NOEC (Oncorhynchus mykiss; chronic/long-term, duration: 97 days, growth): 0.012 mg/L | LD50 (Mus musculus; acute, oral, mortality): 3500 mg/kg | NOAEL (Mus musculus; chronic, duration: 2 years, clinical signs): 6.4 mg/kg-day | NOEC (Daphnia magna): 0.026 mg/L | NOAEL (Canidae): 21 mg/kg-day | LC50 (Tagia sp.): > 1000 mg/kg | LD50 (Colinus virginianus; acute, oral, mortality): > 5000 mg/kg | NOEL (Colinus virginianus; reproduction developmental): 49 mg/kg-day | NOEC (Rattus norvegicus): 70.6 mg/kg-day | LD50 (Apis mellifera): > 100 µg/piece | LC50 (Anas platyrhynchos): > 1620 mg/kg-day | NOEC (Bibionidae): 0.25 mg/L
